Test results published in patent US6737383B1, “Herbicidal oxadiazolidines” (priority 1999, dated 2004).

Assays:
blackgrass = assay: Test B pre/postemergence blackgrass; assay type: in vivo, Alopecurus myosuroides
How it was run: (§1)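 Response is a visual 0-to-10 score relative to untreated plants, where 0 means no effect and 10 means complete control, taken twelve to sixteen days after application. Treatments went onto soil at planting and onto foliage of 1- to 4-leaf plants, using a surfactant-containing non-phytotoxic solvent.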

surinam grass = assay: Test B pre/postemergence surinam grass; assay type: in vivo, Brachiaria decumbens
How it was run: as §1

purple nutsedge = assay: Test B pre/postemergence purple nutsedge; assay type: in vivo, Cyperus rotundus
How it was run: as §1

bedstraw = assay: Test B pre/postemergence bedstraw; assay type: in vivo, Galium aparine
How it was run: as §1

wild oat = assay: Test B pre/postemergence wild oat; assay type: in vivo, Avena fatua
How it was run: as §1

pigweed = assay: Test B pre/postemergence pigweed; assay type: in vivo, Amaranthus retroflexus
How it was run: as §1

rape = assay: Test B pre/postemergence rape; assay type: in vivo, Brassica napus
How it was run: as §1

giant foxtail = assay: Test B pre/postemergence giant foxtail; assay type: in vivo, Setaria faberii
How it was run: as §1

soybean = assay: Test B pre/postemergence soybean; assay type: in vivo, Glycine max
How it was run: as §1

morningglory = assay: Test B pre/postemergence morningglory; assay type: in vivo, Ipomoea hederacea
How it was run: as §1

cocklebur = assay: Test B pre/postemergence cocklebur; assay type: in vivo, Xanthium strumarium
How it was run: as §1

bamyardgrass = assay: Test B flood test barnyardgrass; assay type: in vivo, Echinochloa crus-galli
How it was run: (§2)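 Flood test on plants grown to the 2-leaf stage; treated plants kept in greenhouse twelve to sixteen days, then visually rated against controls on a 0 (no effect) to 10 (complete control) scale.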

duck salad = assay: Test B flood test duck salad; assay type: in vivo, Heteranthera limosa
How it was run: as §2

smallflower flatsedge = assay: Test B flood test smallflower flatsedge; assay type: in vivo, Cyperus difformis
How it was run: as §2

velvetleaf = assay: Test B pre/postemergence velvetleaf; assay type: in vivo, Abutilon theophrasti
How it was run: as §1

wheat = assay: Test B pre/postemergence wheat; assay type: in vivo, Triticum aestivum
How it was run: as §1

[1] = Postemergence, Rate 125 g/ha, scale of 0 to 10 where 0 is no effect and 10 is complete control
[2] = Preemergence, Rate 62 g/ha, scale 0 to 10 (0 no effect, 10 complete control)
[3] = Preemergence, Rate 125 g/ha, 0 is no effect, 10 is complete control
[4] = Preemergence, Rate 250 g/ha, scale 0 to 10, 0 is no effect, 10 is complete control
[5] = Preemergence, Rate 500 g/ha, scale 0 to 10 (0 no effect, 10 complete control)
[6] = Rate 62 g/ha, Postemergence, scale of 0 to 10 where 0 is no effect and 10 is complete control
[7] = Rate 250 g/ha, Postemergence, scale 0 to 10, 0 is no effect, 10 is complete control
[8] = Rate 500 g/ha, Postemergence, scale 0 to 10
[9] = Rate 62 g/ha, headed Pre-emergence (flood test species), scale 0 to 10 (0 no effect, 10 complete control)
[10] = Rate 125 g/ha, Pre-emergence, flood test species, scale 0 to 10 where 0 is no effect and 10 is complete control
[11] = Rate 250 g/ha, headed Pre-emergence (flood test species), scale 0 to 10 (0 no effect, 10 complete control)
[12] = Rate 500 g/ha, headed Pre-emergence (flood test species), scale 0 to 10 (0 no effect, 10 complete control)

CC(C)N(C(=O)n1oc(=O)n(C(C)(C)C)c1=O)c1ccccc1 [Compound 129]
Blackgrass plant response rating (blackgrass; [1]): 0
Blackgrass plant response rating (blackgrass; [2]): 0
Blackgrass plant response rating (0 to 10 scale) (blackgrass; [3]): 0
Blackgrass plant response rating (blackgrass; [4]): 2
Blackgrass plant response rating (blackgrass; [5]): 4
Blackgrass plant response rating (blackgrass; [6]): 0
Plant response rating, Blackgrass (blackgrass; [7]): 3
Blackgrass plant response rating (blackgrass; [8]): 3
B. signalgrass plant response rating (surinam grass; [1]): 0
B. signalgrass plant response rating (surinam grass; [2]): 0
B. signalgrass plant response rating (0 to 10 scale) (surinam grass; [3]): 2
B. signalgrass plant response rating (surinam grass; [5]): 7
B. signalgrass plant response rating (surinam grass; [6]): 0
Plant response rating, B. signalgrass (surinam grass; [7]): 4
B. signalgrass plant response rating (surinam grass; Rate 500 g/ha, Postemergence, scale of 0 to 10 where 0 is no effect and 10 is complete control): 6
Nutsedge plant response rating (purple nutsedge; [1]): 0
Nutsedge plant response rating (purple nutsedge; [2]): 0
Nutsedge plant response rating (0 to 10 scale) (purple nutsedge; [3]): 0
Nutsedge plant response rating (purple nutsedge; [4]): 0
Nutsedge plant response rating (purple nutsedge; [5]): 0
Nutsedge plant response rating (purple nutsedge; [6]): 0
Plant response rating, Nutsedge (purple nutsedge; [7]): 0
Nutsedge plant response rating (purple nutsedge; [8]): 0
Bedstraw plant response rating (bedstraw; [1]): 0
Bedstraw plant response rating (bedstraw; [2]): 0
Bedstraw plant response rating (0 to 10 scale) (bedstraw; [3]): 0
Bedstraw plant response rating (bedstraw; [4]): 0
Bedstraw plant response rating (bedstraw; [5]): 0
Bedstraw plant response rating (bedstraw; [6]): 0
Plant response rating, Bedstraw (bedstraw; [7]): 3
Bedstraw plant response rating (bedstraw; Rate 500 g/ha, Postemergence, scale 0 to 10, 0 no effect, 10 complete control): 3
Wild oats plant response rating (wild oat; [1]): 0
Wild oats plant response rating (wild oat; [2]): 3
Wild oats plant response rating (0 to 10 scale) (wild oat; [3]): 5
Wild oats plant response rating (wild oat; [4]): 6
Wild oats plant response rating (wild oat; [5]): 6
Wild oats plant response rating (wild oat; [6]): 0
Plant response rating, Wild oats (wild oat; [7]): 2
Wild oats plant response rating (wild oat; [8]): 2
Redroot pigweed plant response rating (pigweed; [1]): 0
Redroot pigweed plant response rating (pigweed; [2]): 0
Redroot pigweed plant response rating (0 to 10 scale) (pigweed; [3]): 2
Redroot pigweed plant response rating (pigweed; [4]): 2
Redroot pigweed plant response rating (pigweed; [5]): 7
Redroot pigweed plant response rating (pigweed; [6]): 0
Plant response rating, Redroot pigweed (pigweed; [7]): 2
Redroot pigweed plant response rating (pigweed; [8]): 3
Rape plant response rating (rape; [1]): 0
Rape plant response rating (rape; [2]): 0
Rape plant response rating (0 to 10 scale) (rape; [3]): 0
Rape plant response rating (rape; [4]): 0
Rape plant response rating (rape; [5]): 0
Rape plant response rating (rape; [6]): 0
Plant response rating, Rape (rape; [7]): 0
Rape plant response rating (rape; [8]): 0
Giant foxtail plant response rating (giant foxtail; [1]): 6
Giant foxtail plant response rating (giant foxtail; [2]): 7
Giant foxtail plant response rating (0 to 10 scale) (giant foxtail; [3]): 7
Giant foxtail plant response rating (giant foxtail; [4]): 8
Giant foxtail plant response rating (giant foxtail; [5]): 9
Giant foxtail plant response rating (giant foxtail; [6]): 4
Plant response rating, Giant foxtail (giant foxtail; [7]): 9
Giant foxtail plant response rating (giant foxtail; [8]): 9
Soybean plant response rating (soybean; [1]): 2
Soybean plant response rating (soybean; [2]): 0
Soybean plant response rating (0 to 10 scale) (soybean; [3]): 0
Soybean plant response rating (soybean; [4]): 0
Soybean plant response rating (soybean; [5]): 2
Soybean plant response rating (soybean; [6]): 1
Plant response rating, Soybean (soybean; [7]): 4
Soybean plant response rating (soybean; [8]): 4
Morningglory plant response rating (morningglory; [1]): 4
Morningglory plant response rating (morningglory; [2]): 0
Morningglory plant response rating (0 to 10 scale) (morningglory; [3]): 0
Morningglory plant response rating (morningglory; [4]): 0
Morningglory plant response rating (morningglory; [5]): 0
Morningglory plant response rating (morningglory; [6]): 4
Plant response rating, Morningglory (morningglory; [7]): 8
Morningglory plant response rating (morningglory; [8]): 8
Cocklebur plant response rating (cocklebur; [1]): 0
Cocklebur plant response rating (cocklebur; [2]): 0
Cocklebur plant response rating (0 to 10 scale) (cocklebur; [3]): 0
Cocklebur plant response rating (cocklebur; [4]): 0
Cocklebur plant response rating (cocklebur; [6]): 0
Plant response rating, Cocklebur (cocklebur; [7]): 0
Cocklebur plant response rating (cocklebur; [8]): 0
Barnyardgrass plant response rating (bamyardgrass; [9]): 7
Barnyardgrass plant response rating (bamyardgrass; [10]): 3
Barnyardgrass plant response rating (bamyardgrass; [11]): 9
Plant response rating, Barnyardgrass (bamyardgrass; [12]): 9
Ducksalad plant response rating (duck salad; [9]): 5
Ducksalad plant response rating (duck salad; [10]): 5
Ducksalad plant response rating (duck salad; [11]): 5
Plant response rating, Ducksalad (duck salad; [12]): 5
S. Flatsedge plant response rating (smallflower flatsedge; [9]): 3
S. Flatsedge plant response rating (smallflower flatsedge; [10]): 5
S. Flatsedge plant response rating (smallflower flatsedge; [11]): 9
Plant response rating, S. Flatsedge (smallflower flatsedge; [12]): 9
Velvetleaf plant response rating (velvetleaf; [1]): 0
Velvetleaf plant response rating (velvetleaf; [2]): 0
Velvetleaf plant response rating (0 to 10 scale) (velvetleaf; [3]): 0
Velvetleaf plant response rating (velvetleaf; [4]): 4
Velvetleaf plant response rating (velvetleaf; [5]): 6
Velvetleaf plant response rating (velvetleaf; [6]): 0
Plant response rating, Velvetleaf (velvetleaf; [7]): 0
Velvetleaf plant response rating (velvetleaf; [8]): 0
Wheat plant response rating (wheat; [1]): 0
Wheat plant response rating (wheat; [2]): 0
Wheat plant response rating (0 to 10 scale) (wheat; [3]): 0
Wheat plant response rating (wheat; [4]): 3
Wheat plant response rating (wheat; [5]): 3
Wheat plant response rating (wheat; [6]): 0
Plant response rating, Wheat (wheat; [7]): 2
Wheat plant response rating (wheat; [8]): 2
